Results: patent US20240261294A1, “METHOD FOR TREATING IDH INHIBITOR-RESISTANT SUBJECTS” (Eli Lilly and Company, priority 2021, published 2024)
Numbering of substitutions follows the chain as printed. Where two headings read alike, the source gives them in different places.

Molecular target: T1, IDH2 R140Q + 1319M trans (Homo sapiens, UniProt P48735, I319M/R140Q)
T1 sequence (P48735 40-452 R140Q): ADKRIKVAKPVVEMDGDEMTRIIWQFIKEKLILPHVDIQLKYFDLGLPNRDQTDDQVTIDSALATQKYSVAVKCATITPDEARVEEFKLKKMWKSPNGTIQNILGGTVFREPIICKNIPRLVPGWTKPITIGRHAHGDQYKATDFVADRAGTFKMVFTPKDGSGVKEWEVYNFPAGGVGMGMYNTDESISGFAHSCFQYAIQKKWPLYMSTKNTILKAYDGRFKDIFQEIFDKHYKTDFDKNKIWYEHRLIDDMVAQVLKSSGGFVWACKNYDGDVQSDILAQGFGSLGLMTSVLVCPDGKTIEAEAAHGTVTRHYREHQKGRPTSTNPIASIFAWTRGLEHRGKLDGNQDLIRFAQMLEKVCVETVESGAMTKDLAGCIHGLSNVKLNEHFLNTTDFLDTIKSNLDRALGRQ
T1 sequence (P48735 40-452 I319M): T1 sequence (P48735 40-452 R140Q) with Q101R, I280M
Test: Inhibition of 2-HG production in IDH2 mutant U-87 MG cells
Assay type: cell-based
Conditions: 72 hours incubation, 12.5K cells/well
Experimental: Compounds and Formulation. Compound A may be synthesized as described in WO/18/111707. Compound A is prepared as a 20 mM stock in 100% DMSO (dimethyl sulfoxide) (Sigma, D2438) and diluted serially in 100% DMSO to achieve the desired concentrations. DMSO preparations are further diluted with cell culture media prior to addition in the assay.
Cell lines. U-87 MG cells (ATCC, HTB-14) are cultured and assayed in MEM (Gibco, 11095) with 2 mM GlutaMAX (Gibco, 35050), 1 mM Pyruvate (Gibco, 11360), 0.1 mM NEAA ((Non-essential amino acid) Gibco, 11140) and 10% dialyzed FBS (Fetal bovine serum) (Gibco, 26400).
Cell-based inhibition assays. Cell-based assays are performed by measuring 2-HG in U-87 MG cells in which IDH2 mutations are expressed.
DNA constructs encoding IDH2 mutations are introduced into U-87 MG cells using transfection (Promega FuGENE HD, E2311) or lentiviral transduction, and the IDH2-mutant expressing cell lines are selected using blasticidin (5 μg/ml) or puromycin (1 μg/ml). Second site mutations (Q316E, I319M, P167R, and G260A) are evaluated in cis (same monomer as driver mutation within dimer) or in trans (opposite monomer from driver mutation in dimer). For compound treatments, 12,500 or 50,000 cells per well in culture medium (150 μl or 100 μl, respectively) are plated in 96 well cell culture plates (Falcon, 353377) 2 hrs prior to treatment. Cells are treated with serial dilutions of compound A in standard growth media. Plates are incubated in a mammalian cell culture incubator (humidified, 37° C., 5% CO2) for 16 or 72 hrs. Following the incubation period, the media is aspirated and cell extracts are prepared by addition of ice-cold 80% methanol/20% water (100 μL) containing liquid chromatography-mass spectrometry (LC-MS) internal standards (1 μM ^13C4 α-KG and ^13C5 2-HG) per well for ion pairing LC-MS method. 96-well sample plates are then sealed, shaken at 450 rpm for 10 min, and then placed at −20° C. and stored until LC-MS analysis.
LC-MS metabolite analysis of conditioned media and cell lysates. The effect of inhibitors on the concentrations of 2-HG are determined by LC-MS analysis of cell lysates using an ion-pairing method as described below.
Calibration curves are prepared by spiking 2-HG and α-KG into 80% methanol/20% water containing LC-MS internal standards (1 μM ^13C4 α-KG and 1 μM ^13C5 2-HG). The quantitation of 2-HG and α-KG is accomplished using an AB Sciex 6500 mass spectrometer with an Electrospray Ionization (ESI) probe and interfaced with an Ultra Performance Liquid Chromatography (UHPLC) system in the negative multiple-reaction monitoring (MRM) mode. The UHPLC system consists of an Agilent 1290 binary pump, thermostatted column compartment (TCC), and sampler. The injection volume is 1 μL for cell culture extracts. The extracts are chromatographically resolved using a Hypercarb column, 2.1×20 mm, […] Javelin HTS (Thermo Scientific, PN: 35005-022135). Mobile phase A is water/10 mM tributylamine/15 mM acetic acid. Mobile phase B is acetonitrile/20 mM tributylamine/30 mM acetic acid. The solvent flow rate is 1.0 mL/min. The isocratic condition is kept at 26% mobile phase B. The valve, sample loop, and needle are washed with 50% acetonitrile: 50% methanol for 20 seconds. The column temperature is kept at 55° C. Calibration curves are calculated by least-square linear regression with 1/x weighting. 2-HG and α-KG are quantified using standard curve and ratio of the peak area of analytes to internal standard. Data analysis is performed using MultiQuant 3.0 (AB Sciex). The raw data are exported to Microsoft Excel spreadsheets.
Determination of IC50 Curves. IC50 curves for each compound are obtained using four parameter data fitting analysis in GraphPad/Prism software.

- IC50 (IDH2 R140Q + 1319M trans, 150 μl media/well, read-out: IC50, inhibition of 2-HG production): 12.7 nM
- IC50 (IDH2 R140Q_I319M trans, read-out: Relative IC50 (nM) Mean, inhibition of 2-HG production): 18 nM
Structure (SMILES): C=CC(=O)N1CCN([C@@H](CC2CC2)c2ccc([C@H](C)Nc3ncc4c(n3)N(CC)C(=O)OC4)cc2)CC1 [Compound A, 7-[[(1S)-1-[4-[(1S)-2-cyclopropyl-1-(4-prop-2-enoylpiperazin-1-yl)ethyl]phenyl]ethyl]amino]-1-ethyl-4H-pyrimido[4,5-d][1,3]oxazin-2-one]
